In US20240261367A1, “CYCLIC PEPTIDE IMMUNOMODULATORS” (priority 2021, published 2024):

These compounds were tested against T1, PD-1/PD-L1 (Homo sapiens, UniProt Q9NZQ7) (assay: PD-1/PD-L1 Homogenous Time-Resolved Fluorescence (HTRF) binding assay). Settings: PD-L1-His (10 nM) pre-incubated with inhibitor 15 m, then PD-1-Ig (20 nM).
T1 construct: TVMV protease site linker (C); made in house; host or cells: HEK293T cells
T1 sequence (Q9NZQ7 18-239): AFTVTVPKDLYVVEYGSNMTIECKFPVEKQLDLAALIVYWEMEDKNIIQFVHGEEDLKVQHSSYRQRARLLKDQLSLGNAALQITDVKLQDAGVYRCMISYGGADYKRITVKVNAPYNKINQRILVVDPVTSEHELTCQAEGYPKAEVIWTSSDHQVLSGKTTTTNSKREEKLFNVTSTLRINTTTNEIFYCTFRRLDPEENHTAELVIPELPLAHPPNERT

| SMILES | IC50 [nM] |
| --- | --- |
| CCCC[C@H]1C(=O)N(C)[C@@H](CCCC)C(=O)N[C@@H](CC(C)C)C(=O)N[C@H](C(=O)NCC(=O)N[C@@H](Cc2cn(CCOCCOCCOCCOCCOCCOCCOCCOCCOCCOCCOCCNC(=O)CC[C@H](NC(=O)CCCCCCCCCCCCCCCCC(=O)O)C(=O)O)nn2)C(=O)O)CSCC(=O)N[C@@H](Cc2ccc(O)cc2)C(=O)N(C)[C@@H](C)C(=O)N[C@@H](CC(N)=O)C(=O)N2CCC[C@H]2C(=O)N[C@@H](CNC(=O)OC)C(=O)N[C@@H](CC(C)C)C(=O)N2C[C@H](O)C[C@H]2C(=O)N[C@@H](Cc2c[nH]c3ccccc23)C(=O)N[C@@H](CCNC(=O)OCc2oc(=O)oc2C)C(=O)N[C@@H](Cc2cn(CC(=O)O)c3ccccc23)C(=O)N1C [Example 7005] | 12 |
| CCCC[C@H]1C(=O)N(C)[C@@H](CCCC)C(=O)N[C@@H](CC(C)C)C(=O)N[C@H](C(=O)NCC(=O)N[C@@H](Cc2cn(CCOCCOCCOCCOCCOCCOCCOCCOCCOCCOCCOCCNC(=O)CC[C@H](NC(=O)CCCCCCCCCCCCCCCCC(=O)O)C(=O)O)nn2)C(=O)O)CSCC(=O)N[C@@H](Cc2ccc(O)cc2)C(=O)N(C)[C@@H](C)C(=O)N[C@@H](CC(N)=O)C(=O)N2CCC[C@H]2C(=O)N[C@@H](CNC(=O)OCc2oc(=O)oc2C)C(=O)N[C@@H](CC(C)C)C(=O)N2C[C@H](O)C[C@H]2C(=O)N[C@@H](Cc2c[nH]c3ccccc23)C(=O)N[C@@H](CCNC(=O)OC)C(=O)N[C@@H](Cc2cn(CC(=O)O)c3ccccc23)C(=O)N1C [Example 7006] | 43 |
| CCCC[C@H]1C(=O)N(C)[C@@H](CCCC)C(=O)N[C@@H](CC(C)C)C(=O)N[C@H](C(=O)NCC(=O)N[C@@H](Cc2cn(CCOCCOCCOCCOCCOCCOCCOCCOCCOCCOCCOCCNC(=O)CC[C@H](NC(=O)CCCCCCCCCCCCCCCCC(=O)O)C(=O)O)nn2)C(=O)O)CSCC(=O)N[C@@H](Cc2ccc(O)cc2)C(=O)N(C)[C@@H](C)C(=O)N[C@@H](CC(N)=O)C(=O)N2CCC[C@H]2C(=O)N[C@@H](CNC(=O)OC)C(=O)N[C@@H](CC(C)C)C(=O)N2C[C@H](O)C[C@H]2C(=O)N[C@@H](Cc2c[nH]c3ccccc23)C(=O)N[C@@H](CCNC(=O)OCC)C(=O)N[C@@H](Cc2cn(CC(=O)O)c3ccccc23)C(=O)N1C [Example 7012] | 8 |
| CCCC[C@H]1C(=O)N(C)[C@@H](CCCC)C(=O)N[C@@H](CC(C)C)C(=O)N[C@H](C(=O)NCC(=O)N[C@@H](Cc2cn(CCOCCOCCOCCOCCOCCOCCOCCOCCOCCOCCOCCNC(=O)CC[C@H](NC(=O)CCCCCCCCCCCCCCCCC(=O)OCc3oc(=O)oc3C)C(=O)O)nn2)C(=O)O)CSCC(=O)N[C@@H](Cc2ccc(O)cc2)C(=O)N(C)[C@@H](C)C(=O)N[C@@H](CC(N)=O)C(=O)N2CCC[C@H]2C(=O)N[C@@H](CNC(=O)OCC)C(=O)N[C@@H](CC(C)C)C(=O)N2C[C@H](O)C[C@H]2C(=O)N[C@@H](Cc2c[nH]c3ccccc23)C(=O)N[C@@H](CCN)C(=O)N[C@@H](Cc2cn(CC(=O)O)c3ccccc23)C(=O)N1C [Example 7016] | 34 |
| CCCC[C@H]1C(=O)N(C)[C@@H](CCCC)C(=O)N[C@@H](CC(C)C)C(=O)N[C@H](C(=O)NCC(=O)N[C@@H](Cc2cn(CCOCCOCCOCCOCCOCCOCCOCCOCCOCCOCCOCCNC(=O)CC[C@H](NC(=O)CCCCCCCCCCCCCCCCC(=O)O)C(=O)O)nn2)C(=O)O)CSCC(=O)N[C@@H](Cc2ccc(O)cc2)C(=O)N(C)[C@@H](C)C(=O)N[C@@H](CC(N)=O)C(=O)N2CCC[C@H]2C(=O)N[C@@H](CNCC(O)C(O)C(O)C(O)C(O)CO)C(=O)N[C@@H](CC(C)C)C(=O)N2C[C@H](O)C[C@H]2C(=O)N[C@@H](Cc2c[nH]c3ccccc23)C(=O)N[C@@H](CCN)C(=O)N[C@@H](Cc2cn(CC(=O)O)c3ccccc23)C(=O)N1C (stereo partly drawn) [Example 8001] | 12 |

The remaining lines, values ahead:

| IC50 [nM] | SMILES |
| --- | --- |
| 6.9 | CCCC[C@H]1C(=O)N(C)[C@@H](CCCC)C(=O)N[C@@H](CC(C)C)C(=O)N[C@H](C(=O)NCC(=O)N[C@@H](Cc2cn(CCOCCOCCOCCOCCOCCOCCOCCOCCOCCOCCOCCNC(=O)CC[C@H](NC(=O)CCCCCCCCCCCCCCCCC(=O)OC)C(=O)OC)nn2)C(=O)O)CSCC(=O)N[C@@H](Cc2ccc(O)cc2)C(=O)N(C)[C@@H](C)C(=O)N[C@@H](CC(N)=O)C(=O)N2CCC[C@H]2C(=O)N[C@@H](CNC(=O)OCc2oc(=O)oc2C)C(=O)N[C@@H](CC(C)C)C(=O)N2C[C@H](O)C[C@H]2C(=O)N[C@@H](Cc2c[nH]c3ccccc23)C(=O)N[C@@H](CCN)C(=O)N[C@@H](Cc2cn(CC(=O)O)c3ccccc23)C(=O)N1C [Example 7004] |
| 46 | CCCC[C@H]1C(=O)N(C)[C@@H](CCCC)C(=O)N[C@@H](CC(C)C)C(=O)N[C@H](C(=O)NCC(=O)N[C@@H](Cc2cn(CCOCCOCCOCCOCCOCCOCCOCCOCCOCCOCCOCCNC(=O)CC[C@H](NC(=O)CCCCCCCCCCCCCCCCC(=O)O)C(=O)O)nn2)C(=O)O)CSCC(=O)N[C@@H](Cc2ccc(O)cc2)C(=O)N(C)[C@@H](C)C(=O)N[C@@H](CC(N)=O)C(=O)N2CCC[C@H]2C(=O)N[C@@H](CNC(=O)OCc2oc(=O)oc2C)C(=O)N[C@@H](CC(C)C)C(=O)N2C[C@H](O)C[C@H]2C(=O)N[C@@H](Cc2c[nH]c3ccccc23)C(=O)N[C@@H](CCNC(=O)OCC)C(=O)N[C@@H](Cc2cn(CC(=O)O)c3ccccc23)C(=O)N1C [Example 7010] |
| 49 | CCCC[C@H]1C(=O)N(C)[C@@H](CCCC)C(=O)N[C@@H](CC(C)C)C(=O)N[C@H](C(=O)NCC(=O)N[C@@H](Cc2cn(CCOCCOCCOCCOCCOCCOCCOCCOCCOCCOCCOCCNC(=O)CC[C@H](NC(=O)CCCCCCCCCCCCCCCCC(=O)O)C(=O)O)nn2)C(=O)O)CSCC(=O)N[C@@H](Cc2ccc(O)cc2)C(=O)N(C)[C@@H](C)C(=O)N[C@@H](CC(N)=O)C(=O)N2CCC[C@H]2C(=O)N[C@@H](CNC(=O)OCC)C(=O)N[C@@H](CC(C)C)C(=O)N2C[C@H](O)C[C@H]2C(=O)N[C@@H](Cc2c[nH]c3ccccc23)C(=O)N[C@@H](CCNC(=O)OC)C(=O)N[C@@H](Cc2cn(CC(=O)O)c3ccccc23)C(=O)N1C [Example 7013] |
| 8.6 | CCCC[C@H]1C(=O)N(C)[C@@H](CCCC)C(=O)N[C@@H](CC(C)C)C(=O)N[C@H](C(=O)NCC(=O)N[C@@H](Cc2cn(CCOCCOCCOCCOCCOCCOCCOCCOCCOCCOCCOCCNC(=O)CC[C@H](NC(=O)CCCCCCCCCCCCCCCCC(=O)O)C(=O)O)nn2)C(=O)O)CSCC(=O)N[C@@H](Cc2ccc(O)cc2)C(=O)N(C)[C@@H](C)C(=O)N[C@@H](CC(N)=O)C(=O)N2CCC[C@H]2C(=O)N[C@@H](CNC(=O)OCC)C(=O)N[C@@H](CC(C)C)C(=O)N2C[C@H](O)C[C@H]2C(=O)N[C@@H](Cc2c[nH]c3ccccc23)C(=O)N[C@@H](CCNC(=O)OCc2oc(=O)oc2C)C(=O)N[C@@H](Cc2cn(CC(=O)O)c3ccccc23)C(=O)N1C [Example 7014] |
